{"source": "paper PMC12518037", "about": "“Design, Synthesis, Biological Evaluation, and In Silico Study of Tetrahydropyridines as Prospective Monoamine Oxidase Inhibitors” (ChemistryOpen, 2025)", "key": {"[1]": {"target": "T1, MAO‐A (Homo sapiens, UniProt P21397)", "T1 sequence (P21397 1-527)": "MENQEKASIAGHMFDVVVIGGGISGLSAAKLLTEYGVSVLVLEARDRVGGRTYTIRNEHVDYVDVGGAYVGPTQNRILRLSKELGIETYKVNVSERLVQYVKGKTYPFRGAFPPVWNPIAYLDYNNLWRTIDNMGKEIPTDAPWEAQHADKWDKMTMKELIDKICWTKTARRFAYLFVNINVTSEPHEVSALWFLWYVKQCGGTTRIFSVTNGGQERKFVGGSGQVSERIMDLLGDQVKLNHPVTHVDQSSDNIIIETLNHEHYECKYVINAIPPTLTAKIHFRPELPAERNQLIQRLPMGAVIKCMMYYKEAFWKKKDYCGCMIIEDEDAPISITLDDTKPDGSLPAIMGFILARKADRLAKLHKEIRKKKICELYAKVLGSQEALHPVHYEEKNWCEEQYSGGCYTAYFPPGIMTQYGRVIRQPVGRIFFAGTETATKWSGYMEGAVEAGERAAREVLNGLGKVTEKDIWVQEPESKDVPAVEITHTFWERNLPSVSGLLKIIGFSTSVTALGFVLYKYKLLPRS", "assay": "MAO-A inhibition assay (Amplex red fluorescence, tyramine substrate)", "format": "biochemical", "details": "percent inhibition observed at 100 μM", "method": "(§1) The range of compounds used in the study started at 1 mM for the initial screening to determine the percentage of inhibition. […] For 10 minutes, the reaction mixture was incubated at 37 °C. Tyramine, a substrate with a final concentration of 0.30 mM, was added to each well after 15 minutes, followed by 10 μL of Amplex red, a fluorogenic substrate. The FLUOstar Omega fluorescence plate reader (BMG Labtech GmbH, Ortenberg, Germany) was used to detect the change in fluorescence."}, "[2]": {"target": "T2, MAO‐B (Homo sapiens, UniProt P27338)", "T2 sequence (P27338 2-520)": "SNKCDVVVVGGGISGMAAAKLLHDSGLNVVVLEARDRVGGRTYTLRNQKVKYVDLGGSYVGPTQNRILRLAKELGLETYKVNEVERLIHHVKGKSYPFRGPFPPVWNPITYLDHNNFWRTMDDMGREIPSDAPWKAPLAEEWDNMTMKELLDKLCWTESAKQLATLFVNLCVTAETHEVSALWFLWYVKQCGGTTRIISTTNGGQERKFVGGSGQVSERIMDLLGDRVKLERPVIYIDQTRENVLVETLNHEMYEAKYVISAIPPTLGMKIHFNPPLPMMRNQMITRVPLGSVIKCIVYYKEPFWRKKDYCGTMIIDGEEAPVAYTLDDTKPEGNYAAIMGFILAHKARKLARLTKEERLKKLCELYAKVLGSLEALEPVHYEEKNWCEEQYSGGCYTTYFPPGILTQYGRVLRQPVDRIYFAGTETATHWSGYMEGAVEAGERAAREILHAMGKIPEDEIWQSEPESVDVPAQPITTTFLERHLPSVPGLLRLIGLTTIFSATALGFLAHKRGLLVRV", "assay": "MAO-B inhibition assay (Amplex red fluorescence, tyramine substrate)", "format": "biochemical", "details": "percent inhibition observed at 100 μM", "method": "as §1"}}, "data": [{"smiles": "CCOC(=O)C1=C(Nc2ccc(Cl)cc2)CC(c2ccccc2)N(c2ccc(Cl)cc2)C1c1ccccc1", "note": "(centres unmarked) [4 b, Ethyl 1‐(4‐chlorophenyl)‐4‐(4‐chlorophenylamino)‐2,6‐diphenyl‐1,2,5,6‐tetrahydropyridine‐3‐carboxylate]", "values": [{"measurement": "inhibition at 100 µM", "setting": "[1]", "result": 40, "unit": "%"}]}, {"smiles": "CCOC(=O)C1=C(Nc2ccc(C)cc2)CC(c2ccc(Cl)cc2)N(c2ccc(C)cc2)C1c1ccc(Cl)cc1", "note": "(centres unmarked) [4 j, Ethyl 4‐(p–toluidino)‐2,6‐bis(4‐chlorophenyl)‐1‐p–tolyl‐1,2,5,6‐tetrahydropyridine‐3‐carboxylate]", "values": [{"measurement": "inhibition at 100 µM", "setting": "[2]", "result": "< 50", "unit": "%"}, {"measurement": "inhibition at 100 µM", "setting": "[1]", "result": "< 50", "unit": "%"}]}, {"smiles": "CCOC(=O)C1=C(Nc2ccc(Cl)cc2)CC(c2ccc([N+](=O)[O-])cc2)N(c2ccc(Cl)cc2)C1c1ccc([N+](=O)[O-])cc1", "note": "(centres unmarked) [4 l, Ethyl 1‐(4‐chlorophenyl)‐4‐(4‐chlorophenylamino)‐2,6‐bis(4‐nitrophenyl)‐1,2,5,6‐tetrahydropyridine‐3‐carboxylate]", "values": [{"measurement": "inhibition at 100 µM", "setting": "[2]", "result": 23, "unit": "%"}]}, {"smiles": "CCOC(=O)C1=C(Nc2ccc(OC)cc2)CC(c2ccc(Cl)cc2)N(c2ccc(OC)cc2)C1c1ccc(Cl)cc1", "note": "(centres unmarked) [4 i, Ethyl 2,6‐bis(4‐chlorophenyl)‐1‐(4‐methoxyphenyl)‐4‐(4‐methoxyphenylamino)‐1,2,5,6‐tetrahydropyridine‐3‐carboxylate]", "values": [{"measurement": "inhibition at 100 µM", "setting": "[2]", "result": "< 50", "unit": "%"}, {"measurement": "inhibition at 100 µM", "setting": "[1]", "result": "< 50", "unit": "%"}]}, {"smiles": "CCOC(=O)C1=C(Nc2ccc(Br)cc2)CC(c2ccc(Cl)cc2)N(c2ccc(Br)cc2)C1c1ccc(Cl)cc1", "note": "(centres unmarked) [4 h, Ethyl 1‐(4‐bromophenyl)‐4‐(4‐bromophenylamino)‐2,6‐bis(4‐chlorophenyl)‐1,2,5,6‐tetrahydropyridine‐3‐carboxylate]", "values": [{"measurement": "inhibition at 100 µM", "setting": "[1]", "result": "< 50", "unit": "%"}]}, {"smiles": "CCOC(=O)C1=C(Nc2ccc(Br)cc2)CC(c2ccc([N+](=O)[O-])cc2)N(c2ccc(Br)cc2)C1c1ccc([N+](=O)[O-])cc1", "note": "(centres unmarked) [4 m, Ethyl 1‐(4‐bromophenyl)‐4‐(4‐bromophenylamino)‐2,6‐bis(4‐nitrophenyl)‐1,2,5,6‐tetrahydropyridine‐3‐carboxylate]", "values": [{"measurement": "inhibition at 100 µM", "setting": "[2]", "result": 46, "unit": "%"}]}]}
